Results taken from a melting point compilation (Tetko et al.; mined from patent text by program, amines drawn as free bases though some values may be those of a salt).

Compound | melting point [°C]
c1ccc(COc2cc3cc(-c4ccccc4)[nH]c3cc2OCc2ccccc2)cc1 | 140 to 141
COc1cc2c(c3c1OC(C)(C)C3)C(c1ccccc1)=NC(CO)C2 (centres undefined) | 156 to 158
Cn1nnc2cccc(C=O)c21 | 126
Oc1ccc(C2=COc3ccccc3O2)cc1 | 137 to 140
COc1cc(C=O)c(F)cc1Cl | 120 to 122
C=C(COc1ccc(C(=O)CCC(=O)O)cc1F)COc1ccc(C(C)=O)c(O)c1CCC | 132 to 134
CC(C)(C)c1cc2c(c(C(C)(C)C)c1)OC(=O)C2c1ccc(OCCO)cc1 (centres undefined) | 132 to 135
COc1cc(C=CC(=O)N2CCN(c3nc(N)c4cc(OC)c(OC)cc4n3)CC2)cc(OC)c1 | 132 to 135
O=C(NCc1ccc(F)cc1)c1ccc2nc(N[C@@H]3CCc4ccccc43)ccc2c1 | 175
Cc1cc(Cn2nnn(-c3cc(C(F)(F)F)cc(C(F)(F)F)c3)c2=O)ccc1N | 129 to 130
CN1C(=O)C2(COc3cc4c(cc32)OCCO4)c2c(C(=O)NC3CC3)cccc21 (centres undefined) | 127 to 128
Cc1ccc(S(=O)(=O)NC2N=C(c3ccccc3F)c3ccccc3NC2=O)cc1 (racemic) | 215 to 216
COC(=O)c1ccc(Oc2ccc3c(c2)CCN(C2CCN(C4CCC4)CC2)C3=O)cc1 | 269 to 270
C=C(C)C1(CC(C)C)CCN(C(Cc2ccccc2)C(=O)NC)C1=O (centres undefined) | 91 to 92
Cc1cc(C)c(C2C(=O)N(N(C)C)C3(CCN(N(C)C)CC3)C2=O)c(C)c1 (centres undefined) | 80 to 85
N#CNC(=NC1CCCC1)Nc1cccc(C(F)(F)F)c1 | 112 to 113
CSC(=C[N+](=O)[O-])NCCCCc1c[nH]cn1 | 157 to 158
Clc1ccccc1CCN1CCN(c2n[nH]c3c2CCc2ccccc2-3)CC1 | 134 to 136
CCc1nn(CCO)c(CC)c1Oc1cc(C#N)cc(S(C)(=O)=O)c1 | 133
O=C(O)c1cccc(C(=O)C=Cc2cccc(C=Cc3ccc4ccccc4n3)c2)c1O | 237 to 240
CCn1ncc2c3c(cnc21)C(N)(OC)N=C1N=CNN13 (centres undefined) | 215 to 216
COc1cc(C)nc(NC(=O)NS(=O)(=O)c2ccccc2C(CF)OC(C)=O)n1 (centres undefined) | 198 to 200
O=S(Cc1ccc(Cl)cc1)C1CCC(C=CC=Cc2ccc(C(F)(F)F)cc2)CC1 (centres undefined) | 212 to 214

Compound | melting point [°C]
O=C1C=C(O)C(=O)c2cc(Br)ccc21 | 197
O=[N+]([O-])c1cc2ccccc2c2nccnc12 | 163 to 165
CCCOCCOc1ccc(-c2ccc3c(c2)C=C(C(=O)Nc2ccc(CN(C)C4CCOCC4)cc2)CCS3(=O)=O)cc1C | 192 to 195
c1ccc(-c2nc3cc(-c4nc(COc5ccc(CCCn6ccnc6)cc5)co4)ccc3o2)cc1 | 166 to 167
COC(=O)c1cncc(N(C)C(=O)C(C)CSC(C)=O)c1 (centres undefined) | 123 to 125
CC(CC(C)(C)O)=NO | 159 to 161
O=C1c2cc(Cl)ccc2-n2cnc(-c3noc(CCl)n3)c2[C@@H]2CCN12 | 238 to 241
O=C(O)/C=C/c1cncc(OCc2ccccc2)c1 | 140
CCOC(=O)c1cn(CCc2ccc(OC)cc2)c2cc(C3CC3)nn2c1=O | 160 to 165
COc1cc(OC)nc(NC(=O)NS(=O)(=O)Cc2ccccc2-c2nnc(SC)o2)n1 | 174 to 177
Cc1c(Cc2ccccc2)c(=O)n2c(CN(C)Cc3ccccc3)c(-c3ccc(NC(=O)OC(C)(C)C)cc3)nc2n1Cc1c(F)cccc1F | 179 to 184
N#Cc1cc(-c2ccccc2)[nH]c1Sc1ccncc1 | 172 to 174
CCOc1ccc2cc(N3CC(COC)OC3=O)ccc2c1 (centres undefined) | 130
CCCc1nn(-c2ccc(C(F)(F)F)cn2)cc1CCCCOc1cc(CC(=O)O)ccc1OC | 147 to 148
Cc1ccc(NC(=O)C2CC2)c(-c2nc(C(F)(F)F)cs2)c1 | 155 to 156
Clc1nnnc(-c2cccc3ccccc23)c1Cl | 165 to 170
Cn1c(/C=C/C(=O)O)c(-c2ccccc2)c2ccccc2c1=O | 266 to 268
CCCCc1c(C(=O)N(C)Cc2ccc3c(Br)c(O)ccc3c2)oc2ccccc12 | 53 to 56
O=C(O)c1ccc(CCCC2SCC(=O)N2CCC2(O)CCCCCC2)cc1 (centres undefined) | 146 to 148
COc1ccc(N2CCN(c3c(C)c(C)c4c(c3C)C(O)(c3ccccc3)C(C)(C)O4)CC2)cc1 (centres undefined) | 123 to 125
CC(C)(C)NC(=O)Nc1nc2nc(N)ncc2cc1-c1ccncc1 | > 350
COc1ccc(-c2cc(C3CCN(C(=O)c4ccccc4)CC3)nc(N)n2)cc1 | 165 to 166
CC(C)C(=O)N1CCNC1=Nc1ccc(Cl)cc1Cl | 147 to 148

Compound | melting point [°C]
OCc1ccc(-c2ccc3nnn(Cc4ccc5ncccc5c4)c3n2)cc1F | 202 to 204
CC(C)Oc1ccc(-c2nc(O)c(C(=O)O)s2)cc1 | 126 to 127
COC(=O)c1ccc(N2C(=O)CCC2(CN=[N+]=[N-])COC(=O)c2ccccc2)c([N+](=O)[O-])c1 (centres undefined) | 214 to 215
Fc1ccc(Nc2ncnc3cc(-c4ccco4)ccc23)cc1Cl | > 250
CCOc1cc(CCCC2OC(=O)NC2=O)ccc1OCc1coc(-c2ccccc2)n1 (centres undefined) | 119 to 120
CSc1cc2c(cc1C(F)(F)F)N(C(=O)Nc1cccc(C(=O)N(C)CCN(C)C)c1)CC2 | 140 to 141
CCS(=O)(=O)Nc1cc(Br)cc(Cc2c[nH]cn2)c1C | 202 to 204
CCn1ncc(C(=O)c2ccc(Cl)cc2Cl)c1O | 144 to 146
COc1ccc(N2CCN(Cc3ccc(NC(=O)/C=C/c4cccc(-c5ccc(C)cc5)c4)cc3)CC2)cc1 | 207 to 208
O=C(O)c1cc(S)cc2c1OCCO2 | 191 to 192
CC1=C(C(=O)OC(C)C)C(c2ccc(F)cc2Cl)N=C(c2c(F)cccc2F)N1 (centres undefined) | 155 to 158
COP(=O)(OC)C(c1ccc(F)cc1)(c1ccccc1F)c1ccccc1Cl (centres undefined) | 132
CCCCCCCCCCCCCCOc1ccc(C(=O)O)cc1 | 95 to 99
COc1ccc2c(c1)c(CC(=O)OCC(=O)OC(C)(C)C)c(C)n2C(=O)c1ccc(Cl)cc1 | 96 to 97
CN1CCN(c2cc3c(Br)cccc3c(=O)[nH]2)CC1 | 240 to 241
Cc1cccc(-c2[nH]nnc2-c2ccc3c(c2)N(CCN2CCOCC2)C(=O)CO3)n1 | 150
CC(=O)NCCc1ccc(NC(=O)C=C2CC(C(=O)OCc3ccccc3)Nc3cc(Cl)cc(Cl)c32)cc1 (racemic) | 235 to 238
CON=C(C)CCN1C(=O)c2ccccc2C1=O | 55 to 64
O=C(Nc1ccc(S(=O)(=O)c2ccccc2)cc1)C1(O)CCCC1 | 214 to 216
Cc1c(Nc2c(C#N)cnc3sc(-c4cccc(CN(C)C)c4)cc23)ccc2[nH]ccc12 | 227 to 229
CCOC(=O)c1ncc2[nH]c3ccc(S(=O)(=O)N(C)C)cc3c2c1COC | 191 to 193
CCCCc1c(O)c2nccnc2n(-c2ccccc2)c1=O | 183 to 185
CC(C)n1c(C=O)c(-c2ccc(F)cc2)c2cccnc21 | 95 to 101
